# Laboratory results taken from US9687438B2, “Method for enhancing collagen secretion and preventing cutaneous aging using chenopodium formosanum extract” (TCI Co., Ltd., priority 2014, dated 2017).
# How the values were obtained:
# porcine collagen [1] = test: Early glycation product (fructosamine) formation; assay type: biochemical; details: versus untreated glycated collagen control
# Method: (§1) In order to evaluate the ability to prevent glycation of collagen of the Chenopodium formosanum extract, firstly, porcine collagen (60 mg/mL) and fructose (1.5 M) were respectively prepared in 0.2 M potassium phosphate buffer (pH 7.4, containing 0.06% sodium azide). For each reaction of glycation, 100 μL of porcine collagen, 100 μL of fructose solution, and 100 μL of deionized water were deposited in a 1.5 mL microfuge tube. After incubation, the reacted solutions were stored frozen at −20° C. For determination of collagen-fructose glycation, a glycation inhibitor of aminoguanidine (AG) (Sigma) was used. 100 μL of 3 mM AG solution (prepared in deionized water) was introduced in substitution of the deionized water in each of the reactions described above containing collagen and fructose. Meanwhile, different concentrations of the whole grain (un-dehulled) Chenopodium formosanum extract were also prepared and introduced to the reactions describe above. For determination of the intensity, 100 μL of each reacted solution was withdrawn to a well of a 96-well plate and subjected to intensity determination by a spectrofluorometer (FLx 800, BioTek, Winooski, Vt.) set at 360 nm of excitation and 460 nm of emission.
# Amadori product such as fructosamine is formed at the early stage of glycation. […]
# porcine collagen [2] = test: Intermediate glycation product (α-dicarbonyl compounds) formation; assay type: biochemical; details: versus untreated glycated collagen control
# Method: as §1
# Along the glycation process, amadori product is transformed into intermediate-product such as α-dicarbonyl compounds. […]
smiles,measurement,setting,value
N=C(N)NN [aminoguanidine],reduction of relative fructosamine formation,porcine collagen [1],about 8%
same,reduction of relative α-dicarbonyl compounds formation,porcine collagen [2],practically incapable of suppressing the formation of α-dicarbonyl compounds
